Test results taken from US5661182A, “Method for lowering oxygen affinity of hemoglobin in redcell suspensions, in whole blood and in vivo” (Virginia Commonwealth University, priority 1995, dated 1997).
Entries after “also recorded” stand apart in the source; their conditions may differ.

Legend:
[1] = system: HbA/Yakima red blood cells; experiment: Calculated oxygen delivery index of HbA/Yakima red blood cells (ΔY); assay type: cell-based, human; conditions: for ΔY (oxygen delivery index): HbA/Yakima RBC, 0.5 mM
Procedure: Human blood was collected on heparin from healthy nonsmoking donors. Bovine blood was provided by Pr Delpech, INA (Paris-Grignon). Red blood cells were washed three times in isotonic buffer, kept at 4° C., and used within 24 h after sampling. Hemoglobin Yakima, a high-oxygen-affinity variant [α2 β2 99 (G1) Asp>>His], was obtained from a known heterozygous carrier. Fresh Yakima red cells were processed in the same way as described above.
In Vivo Estimates for Percent of Oxygen Delivery. Table 4 presents the calculated oxygen delivery index for red blood cell suspensions in the presence or absence of 0.5 mM L3,5 or RSR-4. The experimental conditions for the experiments of Table 4 were the same as those used for Table 1. The oxygen delivery index was calculated from the experimental oxygen binding curves as the difference in hemoglobin oxygen saturation (percent) corresponding to the pO2 in the arterial blood (90 mmHg) and that in the mixed venous blood (40 mMHg). HbA/Yakima red blood cells were obtained from a heterozygous carrier of the high-affinity Hb variant.

[2] = system: rat erythrocytes; experiment: Hemolysis of rat erythrocytes
[3] = system: bovine red cells; experiment: Hemolysis of bovine red cells in vitro; assay type: cell-based

CC(C)(Oc1ccc(CC(=O)Nc2cc(Cl)cc(Cl)c2)cc1)C(=O)O [RSR-4, 2-[4-[[(3,5-dichloroanilino)carbonyl]methyl]phenoxy]-2-methylpropionic acid]
ΔY (oxygen delivery index) ([1]; 50 μM HSA): 19%
ΔY (oxygen delivery index) ([1]; no HSA): 22%
oxygen delivery restoration ([1]; red cells containing 47% Hb Yakima): able to restore an almost normal oxygen delivery; also recorded: almost normal oxygen delivery index
hemolysis [2]: Significant hemolysis
hemolysis [3]: No hemolysis
